B1: BDNF: brain-derived neurotrophic factor, from Roche (protein, UniProt P23560 19-247, looked up)
Neurotrophic factor BDNF …: APMKEANIRGQGGLAYPGVRTHGTLESVNGPKAGSRGLTSLADTFEHVIEELLDEDQKVRPNEENNKDADLYTSRVMLSSQVPLEPPLLFLLEEYKNYLDAANMSMRVRRHSDPARRGELSVCDSISEWVTAADKKTAVDMSGGTVTVLEKVPVSKGQLKQYFYETKCNPMGYTKEGCRGIDKRHWNSQCRTTQSYVRALTMDSKKRIGWRFIRIDTSCVCTLTIKRGR

Target: T1, TrkB (Rattus norvegicus, UniProt Q63604)
T1 construct: endogenous in cells; host or cells: primary rat cortical neurons (E17 embryos, 13 DIV)
T1 sequence (Q63604 32-821): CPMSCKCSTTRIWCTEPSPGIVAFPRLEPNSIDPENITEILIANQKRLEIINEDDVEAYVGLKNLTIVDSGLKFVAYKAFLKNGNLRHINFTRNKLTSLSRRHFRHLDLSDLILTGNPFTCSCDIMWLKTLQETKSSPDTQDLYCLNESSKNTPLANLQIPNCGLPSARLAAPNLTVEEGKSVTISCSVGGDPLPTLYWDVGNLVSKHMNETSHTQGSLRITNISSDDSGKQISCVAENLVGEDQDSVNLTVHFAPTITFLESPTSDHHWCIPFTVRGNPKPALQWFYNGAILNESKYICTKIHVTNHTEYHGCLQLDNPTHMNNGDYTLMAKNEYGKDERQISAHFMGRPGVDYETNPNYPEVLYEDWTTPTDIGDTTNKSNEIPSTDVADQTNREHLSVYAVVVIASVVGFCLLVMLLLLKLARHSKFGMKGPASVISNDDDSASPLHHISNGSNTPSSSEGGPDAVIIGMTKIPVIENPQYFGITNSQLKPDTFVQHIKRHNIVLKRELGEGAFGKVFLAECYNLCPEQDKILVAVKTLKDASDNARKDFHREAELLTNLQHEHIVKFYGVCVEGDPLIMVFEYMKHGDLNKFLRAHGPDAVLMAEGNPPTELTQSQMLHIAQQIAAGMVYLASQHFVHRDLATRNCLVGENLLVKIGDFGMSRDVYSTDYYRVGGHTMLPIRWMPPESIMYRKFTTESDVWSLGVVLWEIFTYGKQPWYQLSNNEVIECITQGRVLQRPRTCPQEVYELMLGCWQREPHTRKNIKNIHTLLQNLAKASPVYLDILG
Assay: TrkB phosphorylation in primary rat cortical neurons (immunoblotting)
Assay type: cell-based
Settings: 500 nM compound, 20 min, primary rat cortical neurons, immunoblotting
Protocol: (§1) Primary rat cortical neurons from E17 embryos (13 DIV) were treated with 500 nM various chemicals for 15 min. The neuronal cell lysates were collected and resolved on 10% SDS-PAGE. Immunoblotting was conducted with various antibodies. p-TrkB Y817 antibody was employed at 1:20000-40000 dilution.
as §1, with “days in vitro (DIV))” for “DIV)”, “1:20,000-40,000 dilution (top panel). Equal amount of TrkB was loaded in all of the samples (middle panel). P-Akt 473 ELISA analysis with the neuronal lysates (bottom panel).” for “1:20000-40000 dilution.”
7,8-dihydroxyflavone (7,8-DHF) is a small molecular TrkB agonist. Preliminary structure-activity relationship study (SAR) supports that 7,8-catechol moiety is essential for the agonistic effect by 7,8-DHF. To explore the structure-activity relationship (SAR) in depth, the TrkB stimulatory activity was examined by numerous flavonoid derivatives. The numeric positions and each ring's nomenclature are designated (FIG. 1A). Compounds were dissolved in DMSO, then diluted into […] with 1× PBS (final vehicle contains 10% DMSO/PBS) (FIG. 1B). Primary rat cortical neurons were treated with 500 nM compounds for 20 min. The cell lysates were analyzed by immunoblotting. […] Downstream activation of the TrkB target Akt was tightly correlated with TrkB activation patterns by these derivatives (FIG. 1C, bottom panel). As observed, the hydroxy groups on B ring can regulate 7,8-DHF's stimulatory activity on TrkB receptor. As 2′-hydroxy, especially 3′-hydroxy group, elevates the agonistic effect, whereas 4′-hydroxy group diminishes its stimulatory effect.
To compare the TrkB activation by these synthetic compounds, primary cortical cultures were prepared. Cortical neurons were treated with 500 nM of various compounds for 20 min and cell lysates were collected. […] Replacing the H-bond acceptor O atom with hydrogen bond donor NH abolishes its stimulatory effect. […] On the other hand, 7,8-DHF provoked TrkB activation with the minimal concentration of 100 nM (FIG. 2B, right panels). To further study 4′-DMA-7,8-DHF's kinetics on TrkB activation, primary neurons were treated for various time points. 4′-DMA-7,8-DHF swiftly activated TrkB as soon as 5 minutes following treatment. […] To compare the stimulatory effect on TrkB receptor in mouse brains, 1 mg/kg of the synthesized derivatives were injected into C57BL/6J mice. TrkB activation was monitored at different time points.
Additional compounds are listed as designated from a to m (FIG. 6A). The compounds were dissolved in DMSO, then diluted into 500 μM with 1× PBS (final vehicle contains 10% DMSO/PBS). The primary rat cortical neurons (13 DIV) were treated with 500 nM compounds for 20 min. The cell lysates were analyzed by immunoblotting. […] Moreover, p-Akt ELISA was monitored to quantitatively analyze the agonistic activities of these compounds.

Molecule | TrkB activation (phosphorylation) compared to vehicle control
O=c1c(O)c(-c2ccc(O)c(O)c2)oc2c(O)c(O)cc(O)c12 [3,5,7,8,3′,4′-hexahydroxylatedflavone, reference compound] | completely blocked TrkB phosphorylation
O=c1c(O)c(-c2ccccc2O)oc2c(O)c(O)ccc12 [3,7,8,2′-tetrahydroxyflavone] | stimulated TrkB activation
O=c1c(O)c(-c2ccccc2)oc2cc(O)ccc12 [3,7-dihydroxyflavone] | stimulated TrkB activation
O=c1cc(-c2ccccc2)oc2c(O)c(O)cc(O)c12 [5,7,8-trihydroxyflavone] | stimulated TrkB activation
O=c1cc(-c2cccc(O)c2)oc2cc(O)ccc12 [7,3′-dihydroxyflavone] | even more robust stimulatory effect on TrkB phosphorylation than the lead
O=c1cc(-c2ccccc2O)oc2c(O)c(O)ccc12 [7,8,2′-trihydroxyflavone] | stimulated TrkB activation
O=c1cc(-c2cccc(O)c2)oc2c(O)c(O)ccc12 [7,8,3′-trihydroxyflavone] | even more robust stimulatory effect on TrkB phosphorylation than the lead
O=c1cc(-c2ccc(O)cc2)oc2c(O)c(O)ccc12 [7,8,4′-trihydroxyflavone, reference compound] | barely activated TrkB
COc1ccc(-c2cc(=O)c3ccc(O)cc3o2)cc1 [7-hydroxy-4′methoxyflavone, reference compound] | barely activated TrkB
COc1ccc2c(=O)cc(-c3ccccc3)oc2c1O [8-hydroxy-7-methoxyflavone, reference compound] | barely activated TrkB
O=c1cc(-c2ccc(F)cc2)[nH]c2c(O)c(O)ccc12 [#2, 2-(4-fluorophenyl)-7,8-dihydroxyquinolin-4(1H)-one] | failed to provoke TrkB activation
O=c1cc(-c2ccccc2)[nH]c2c(O)c(O)ccc12 [#3, 7,8-dihydroxy-2-phenylquinolin-4(1H)-one] | failed to provoke TrkB activation
O=c1cc(-c2cncnc2)oc2c(O)c(O)ccc12 [#4, 7,8-dihydroxy-2(pyrimidin-5-yl)-4H-chromen-4-one] | strongly activated TrkB

Same assay, conditions: BDNF 100 ng/ml, primary rat cortical neurons

Molecule | TrkB activation (phosphorylation)
B1 | strongly activated TrkB

Target: T2, TrkB F616A (Mus musculus, UniProt P15209, F616A)
T2 construct: from tissue; host or cells: TrkB F616A knock-in mice (brain; whole animal in the forced swim test)
T2 sequence (P15209 32-821 F616A): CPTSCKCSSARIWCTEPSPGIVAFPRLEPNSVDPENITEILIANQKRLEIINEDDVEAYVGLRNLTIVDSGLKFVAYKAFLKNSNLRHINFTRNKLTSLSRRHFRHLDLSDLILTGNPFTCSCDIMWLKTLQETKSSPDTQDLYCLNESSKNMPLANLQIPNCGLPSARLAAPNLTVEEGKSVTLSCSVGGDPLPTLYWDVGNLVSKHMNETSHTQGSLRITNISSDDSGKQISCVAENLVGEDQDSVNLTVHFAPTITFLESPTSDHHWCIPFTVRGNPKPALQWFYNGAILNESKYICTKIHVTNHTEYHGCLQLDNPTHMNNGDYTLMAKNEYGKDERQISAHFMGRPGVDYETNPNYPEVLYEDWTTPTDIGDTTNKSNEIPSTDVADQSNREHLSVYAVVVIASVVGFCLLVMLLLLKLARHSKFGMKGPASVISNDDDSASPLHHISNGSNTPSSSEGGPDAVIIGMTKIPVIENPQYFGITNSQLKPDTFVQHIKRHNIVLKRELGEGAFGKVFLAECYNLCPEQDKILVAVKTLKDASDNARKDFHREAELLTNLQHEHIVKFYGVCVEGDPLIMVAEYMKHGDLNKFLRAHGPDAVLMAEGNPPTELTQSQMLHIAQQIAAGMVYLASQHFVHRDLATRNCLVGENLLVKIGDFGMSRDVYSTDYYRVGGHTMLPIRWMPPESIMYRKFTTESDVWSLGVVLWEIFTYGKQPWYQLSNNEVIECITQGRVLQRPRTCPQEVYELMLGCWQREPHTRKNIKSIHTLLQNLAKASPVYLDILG
Assay: Forced swim test in TrkB F616A knockin mice with or without 1NMPP1
Assay type: in vivo
Settings: TrkB F616A knockin mice, control groups without TrkB agonist
Protocol: Male TrkB knockin mice were given the regular drinking water or 1NMPP1 (25 μM) containing drinking water one day before we started to inject the drugs and sustained throughout the whole experiment. The indicated control (saline) and drugs were administrated for 5 days. […] None of the drugs produced a significant change in 1NMPP1 treated TrkB KI mice (n=6 to 7 mice) as compared to control.
TrkB F616A knockin mice were used to assess whether the behavior responses by 7,8-DHF and its derivative is mediated by TrkB receptor. Transgenic mice were subjected to saline or 1NMPP1 pretreatment, respectively.

Molecule | immobility time, 1NMPP1 treated versus saline control group
CC(C)(C)n1nc(Cc2cccc3ccccc23)c2c(N)ncnc21 [1NMPP1] | No significant difference

Reference: patent US9504674B2, “TrkB agonists and methods of use” (EMORY UNIVERSITY, priority 2010, dated 2016)
